Square brackets hold non-standard residues; d marks the D form. Peptide text beside a SMILES is read from it. * marks the point of attachment. Biotin = O=C1N[C@H]2[C@H](CS[C@H]2CCCCC(=O)*)N1; Dmt = Cc1cc(O)cc(C)c1C[C@H](N)C(=O)O
Key:
[1] = tested on: ARPE-19 human retinal pigment epithelial cells; test: Mitochondrial localization: co-localization with cytochrome c oxidase subunit 4 (COX4); type: cell-based; details: ARPE-19 cells, 1 uM, 2 hours, serum-free DMEM/F12
Experimental: Cells were fixed with 4% PFA at RT for 10 min and then permeabilized with 0.1% Triton X-100 at RT for 10 min. Cells were blocked with 2% BSA (bovine serum albumin) at RT for 30 min, and then incubated with primary antibody for cytochrome c oxidase subunit 4 (COX4), a major protein complex expressed on the inner mitochondrial membrane. The rabbit polyclonal COX4 antibody (Invitrogen PAS-29992, Waltham, MA) was used at 1:500 dilution in 2% BSA at 4° C. overnight.

[2] = tested on: ARPE-19 human retinal pigment epithelial cell monolayers; test: Cell proliferation at scratch edge (PCNA staining); type: cell-based; details: ARPE-19 cells, 10 nM, serum-free, 24 hours after scratch
From the text: (§1) Re-epithelialization of a wound area require proliferation of cells at the wound edge, which can be impaired in most wounds due to lack of blood flow to deliver nutrients and/or growth factor(s) that can be necessary for cell proliferation. Cell proliferation in the wound edge can be monitored by proliferating cell nuclear antigen (PCNA) staining. To mimic the microenvironment of wounds in vitro, serum-free medium was used for the scratch assay in cell cultures.
(§2) Proliferating cells were identified by immunostaining with antibody to proliferating cell nuclear antigen (PCNA) according to standard procedures as presented in IHC World. PCNA staining was performed using the same plate of cells after determination of scratch area. […] All cell nuclei stain blue with Hoechst, but nuclei of proliferating cells stain red. The number of proliferating cells per field was quantified by the intensity of red nuclear stain and normalized to intensity of blue nuclear stain (determined by Nikon NIS-Elements Imaging Software).

[3] = tested on: HK-2 cells; test: Cell viability (Alamar Blue) after 11 days of serum starvation; type: cell-based, human; details: 10 nM, vs serum-free control
Experimental: In the first model, HK-2 cells were cultured in 96-well plates in serum-free DMEM alone or in serum-free DMEM containing 10 nM of SPN11 or SPN12 for 11 days. Culture medium was replaced every 3 days.
(§3) Cell viability was measured using the Alamar Blue Cell Proliferation Assay (Bio-Rad), according to manufacturer's protocol. Alamar Blue uses resazurin to measure reducing power of living cells. The weakly fluorescent resazurin is reduced to the highly fluorescent resorufin when reduced by cellular metabolism. Briefly, alamar blue reagent (10 ul) was added to the culture medium and incubated for 1 h at 37° C. Fluorescence from resorufin (Ex/Em 530/590 nm) was detected using a microplate reader (SpectraMax iD3, Molecular Devices).

[4] = tested on: HK-2 cells; test: Cellular ATP in extreme starvation model (serum-free 5% DMEM in PBS, 3 days); type: cell-based, human; details: 10 nM
Experimental: ATP was measured using the ApoSENSOR ATP Bioluminescence Assay Kit (BioVision) according to manufacturer's protocol. This kit utilizes luciferase to catalyze the formation of light from ATP and luciferin. Briefly, cells were treated with 100 ul of Nuclear Releasing Buffer for 5 min at RT with gentle shaking. 10 ul of ATP Monitoring Enzyme was added to cell lysate, and luminescence was measured using a microplate reader (SpectraMax iD3, Molecular Device). ATP levels were normalized to the serum-free DMEM control group (arbitrarily set to 1.0).
The second model uses an extreme starvation model whereby HK-2 cells were cultured in 96-well plates in serum-free 5% DMEM in PBS (phosphate-buffered saline) for 3 days. Cells were treated with 10 nM free biotin or peptide-conjugated biotin molecules. All treatments were carried out with N=6 in each experiment.

[5] = tested on: HK-2 cells; test: In vitro scratch assay (scratch area); type: cell-based, human; details: 10 nM; for scratch area after 24 hours, microscopic images FIG. 15: serum-free DMEM, 24 hours after mechanical scratch; for closure of the scratch area compared to control, FIG. 16 and FIG. 17 / effectiveness in reducing scratch area compared to free biotin, FIG. 16 and FIG. 17: serum-free, 24 hours
Experimental: (§4) Certain exemplary peptide-conjugated biotin molecules can accelerate wound healing in cell cultures. The in vitro scratch assay is an easy and well-developed method to measure cell proliferation and migration over a “wound area” in vitro. This assay involves creating a “scratch” in a cell monolayer with a pipette tip and then examining the rate at which cells proliferate and migrate to close the scratch.
3×10^5 cells were plated per well in 6-well plates in DMEM at 37° C. in a humidified incubator with 5% CO2 for one day prior to the experiment. To mimic the microenvironment of wounds in vitro, serum-free medium was used in the scratch assay. On the day of the scratch assay, the medium was replaced with serum-free DMEM, and a line scraped across the cell monolayer using a p1000 pipette tip. Cells were washed to remove cell debris and replaced with DMEM alone (control), or DMEM containing 10 nM biotin or peptide-conjugated biotin molecules.
(§5) The scratch area was examined immediately (day 0) using a Nikon Eclipse Ti2 fluorescence microscope. Six different field were captured for each sample using 4×objective. The scratch area (cell-free zone) was calculated using ImageJ software, an open-source Java image processing program inspired by NIH Image (National Institute of Health). The scratch area was re-examined after 24 hours (day 1), and the area was normalized to the area determined on day 0 for the same sample. All results were calculated as change from no-treatment control and averaged for the six fields.

[6] = tested on: HK-2 human renal epithelial cell monolayers; test: Cell proliferation at scratch edge (PCNA staining); type: cell-based; details: HK-2 cells, 10 nM, serum-free, 24 hours after scratch; for number of proliferating cells normalized to all nuclei, FIG. 21: compared to control or biotin
From the text: as §1, §2

[7] = tested on: HK-2 cells; test: Mitochondrial potential (TMRM) of cells at the scratch edge; type: cell-based, human; details: 10 nM, serum-free, 24 hours after scratch; for mitochondrial potential (red fluorescence) normalized to nuclear number, FIG. 25: compared to control
From the text: Rapidly dividing cells can need ATP to support the synthesis of important building blocks. Tissue injury can cause rapid mitochondrial depolarization that compromises ATP production and/or results in cell death. The loss of ATP can further impair cell proliferation and/or tissue repair. Mitochondrial potential can be monitored in the cells at the edge of the scratch area using the cell-permeable potential-dependent dye TMRM (tetramethylrhodamine methyl ester). TMRM can accumulate in negatively charged polarized mitochondria and can be detected as red fluorescence. To mimic the microenvironment of wounds in vitro, serum-free medium was used in the scratch assay. […] HK-2 cells were then incubated with 5 nM TMRM in DMEM without phenol red and incubated for 30 min. Cells were then covered with live cell image buffer and imaged using Nikon Eclipse Ti2 fluorescent microscope (20× objective).

[8] = tested on: ARPE-19 human retinal pigment epithelial cells; test: Biotin uptake by streptavidin-Alexa Fluor 594 fluorescence in ARPE-19 cells; details: 1 uM, 1-hour incubation, serum-free
Experimental: Cellular uptake and localization of peptide-conjugated biotin molecules were determined in HK-2 human renal epithelial cells and ARPE-19 human retinal pigment epithelial cells (ATCC, Manassas, VA). HK-2 cells were cultured in Dulbecco's Modified Eagle's Medium (DMEM) containing 1 g/L glucose and 10% fetal bovine serum (FBS), 100 units/ml penicillin and 100 ug/ml streptomycin. ARPE-19 cells were cultured in DMEM/F12 medium containing 1 g/L glucose and 10% fetal bovine serum (FBS), 100 units/ml penicillin and 100 ug/ml streptomycin. Cells were incubated in humidified incubator with 5% CO2 at 37° C. HK-2 cells and ARPE-19 cells were seeded in 35 mm dish at an initial density of 5×10^4 cells. FBS was removed from the culture medium for 3 days to deplete endogenous biotin in the cells. […]
Biotin uptake was determined using Streptavidin binding. […] By using Alexa Fluor 594-conjugated streptavidin, it is possible to visualize biotin uptake using fluorescence microscopy. […] Live cell image buffer was added and Alexa-594 fluorescence (Ex/Em=591/614 nm) and Hoechst fluorescence ([…]) was observed using the Nikon Eclipse Ti2 fluorescence microscope (100×oil objective). Ten random fields from each sample were quantified by NIS-Elements Imaging Software (Nikon) for streptavidin fluorescence and normalized to Hoechst fluorescence to account for number of cells per field.

[9] = tested on: ARPE-19 cells; test: Cell number and viability after 30 days of serum deprivation; type: cell-based, human; details: 10 nM
Experimental: as §3
In the second model, ARPE-19 cells were grown in serum-free DMEM in the absence or presence of peptide-conjugated biotin molecules for 30 days. Serum-free media was supplemented with 10 nM of SPN12, SPN15 or SPN16 compounds (all at 10 nM) was replaced every 3 days. Culture medium was replaced every 3 days.

[10] = tested on: ARPE-19 cells; test: In vitro scratch assay (scratch area); type: cell-based, human
From the text: as §4, §5

| Compound | number of proliferating (PCNA-positive) cells at the edge of the scratch, images FIG. 22 [2] | scratch area after 24 hours, microscopic images FIG. 15 [5] | closure of the scratch area compared to control, FIG. 16 and FIG. 17 [5] | effectiveness in reducing scratch area compared to free biotin, FIG. 16 and FIG. 17 [5] | number of proliferating cells normalized to all nuclei, FIG. 21 [6] | number of cells with good mitochondrial potential (TMRM) at scratch edge, images FIG. 24 [7] | mitochondrial potential (red fluorescence) normalized to nuclear number, FIG. 25 [7] | also measured |
| --- | --- | --- | --- | --- | --- | --- | --- | --- |
| Cc1cc(O)cc(C)c1C[C@H](NC(=O)[C@@H](CCCNC(=N)N)NC(=O)CCCC[C@@H]1SC[C@@H]2NC(=O)N[C@@H]21)C(=O)N[C@@H](CCCCN)C(=O)N[C@@H](Cc1ccccc1)C(N)=O [SPN05, D-Biotin-D-Arg-L-(2′6′-dimethylTyr)-L-Lys-L-Phe-NH2] (Biotin-[dR][Dmt]KF-NH2) |  |  |  |  |  |  |  | co-localization of biotin staining with COX4 staining (inner mitochondrial membrane), FIG. 6 [1]: co-localization |
| N=C(N)NCCC[C@@H](NC(=O)[C@@H](Cc1c[nH]c2ccccc12)NC(=O)CCCC[C@@H]1SC[C@@H]2NC(=O)N[C@@H]21)C(=O)N[C@H](Cc1c[nH]c2ccccc12)C(=O)N[C@H](CCCCN)C(=O)O [SPN08, D-Biotin-D-Trp-D-Arg-D-Trp-D-Lys-OH] (Biotin-[dW][dR][dW][dK]-OH) | increased the number of proliferating cells |  |  |  |  |  |  |  |
| N=C(N)NCCC[C@@H](NC(=O)[C@H](N)Cc1c[nH]c2ccccc12)C(=O)N[C@H](Cc1c[nH]c2ccccc12)C(=O)N[C@H](CCCCNC(=O)CCCC[C@@H]1SC[C@@H]2NC(=O)N[C@@H]21)C(=O)O [SPN09, D-Trp-D-Arg-D-Trp-D-Lys(biotinyl)-OH] (H-[dW][dR][dW][dK](Biotin)-OH; N-terminus assumed) | increased the number of proliferating cells |  |  |  |  |  |  |  |
| N=C(N)NCCC[C@H](NC(=O)[C@@H](N)Cc1c[nH]c2ccccc12)C(=O)N[C@@H](Cc1c[nH]c2ccccc12)C(=O)N[C@@H](CCCCNC(=O)CCCC[C@@H]1SC[C@@H]2NC(=O)N[C@@H]21)C(N)=O [SPN11, L-Trp-L-Arg-L-Trp-L-Lys(biotinyl)-NH2] (H-WRWK(Biotin)-NH2; N-terminus assumed) | increased the number of proliferating cells | almost completely closed | significantly accelerated the closure of the scratch area | twice as effective | doubled | increased the number of cells with good mitochondrial potential | significantly increased mitochondrial potential | improvement of cell viability in the absence of serum, FIG. 7 [3]: 35%; ATP content compared to free biotin under extreme starvation, FIG. 12 [4]: doubling; number of proliferating (PCNA-positive) cells at the edge of the scratch, images FIG. 20 ([6]; compared to free biotin): increased the number of proliferating cells |
| N=C(N)NCCC[C@@H](NC(=O)CCCC[C@@H]1SC[C@@H]2NC(=O)N[C@@H]21)C(=O)N[C@@H](Cc1ccc(O)cc1)C(=O)N[C@H](CCCNC(=N)N)C(=O)N[C@@H](Cc1ccccc1)C(=O)N[C@@H](CCCCNC(=O)CCCC[C@@H]1SC[C@@H]2NC(=O)N[C@@H]21)C(N)=O [SPN16, D-Biotin-D-Arg-L-Tyr-D-Arg-L-Phe-L-Lys(biotinyl)-NH2] (Biotin-[dR]Y[dR]FK(Biotin)-NH2) |  |  | significantly accelerated the closure of the scratch area | three times more effective |  |  |  | intracellular streptavidin staining (cellular uptake of biotin), microscopic images FIG. 4 [8]: intense red staining with a perinuclear distribution; cell viability after serum deprivation compared to control, FIG. 9 ([9]; 30 days of serum deprivation): doubled; cell number after prolonged serum deprivation, microscopic images FIG. 8 ([9]; 30 days serum-free): increased cell number; wound healing (scratch closure), FIG. 18 [10]: accelerated wound healing |
| O=C(O)CCCC[C@@H]1SC[C@@H]2NC(=O)N[C@@H]21 [biotin] | no effect | small effect on reducing scratch area | significantly accelerated the closure of the scratch area |  | small and did not reach statistical significance | no effect | did not reach statistical significance | increase of the percent of proliferating cells at the edge of the scratch, FIG. 23 ([2]; compared to control): without effect |

Reference: patent US11801235B2, “Methods and compositions for delivery of biotin to mitochondria” (priority 2020, dated 2023)
